One molecule from publication PMC11187542, “Identification of fragments targeting SMYD3 using highly sensitive kinetic and multiplexed biosensor-based screening” (RSC Medicinal Chemistry, 2024) can be followed below.

One test deals with T1, SMYD3 (apo, native) (Homo sapiens, UniProt Q9H7B4).
T1 construct: Full length recombinant SMYD3 was produced as previously reported; made in house; host or cells: E. coli BL21(DE3), in some cases Rosetta 2
T1 sequence (Q9H7B4 1-428): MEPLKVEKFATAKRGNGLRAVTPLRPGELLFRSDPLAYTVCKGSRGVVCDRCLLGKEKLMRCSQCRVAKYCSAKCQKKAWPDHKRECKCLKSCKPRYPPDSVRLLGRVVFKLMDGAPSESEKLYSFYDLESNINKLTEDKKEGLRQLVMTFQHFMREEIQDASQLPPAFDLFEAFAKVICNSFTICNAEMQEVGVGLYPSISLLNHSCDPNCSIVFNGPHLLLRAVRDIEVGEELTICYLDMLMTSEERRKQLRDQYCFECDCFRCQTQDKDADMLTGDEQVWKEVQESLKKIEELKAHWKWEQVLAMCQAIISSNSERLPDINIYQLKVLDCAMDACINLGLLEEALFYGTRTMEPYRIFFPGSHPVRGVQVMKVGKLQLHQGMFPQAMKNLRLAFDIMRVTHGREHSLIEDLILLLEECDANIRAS
Nature of the test: GCI biosensor kinetic screening, apo SMYD3 surface. In kind it is binding. The text has this:
(§1) A multiplexed screening assay was set up with three different SMYD3 surfaces and a blank reference surface in flow channels 1–4 (FC1–FC4) (Fig. 2a), as described previously.[5] The apo SMYD3 surface detected fragments interacting anywhere on SMYD3, while a SMYD3 surface blocked by active site-specific tight-binding inhibitor EPZ031686 detected compounds binding elsewhere. The denatured surface served as a reference, detecting fragments binding to unfolded proteins, also potentially present to a significant degree in the other two surfaces.
After preparing the sensor surface and immobilising SMYD3, the functionality of the surface was assessed via analysis of interactions with the co-factor product S-adenosyl-homocysteine (SAH). It was used as a control in all experiments, confirming that sensor surfaces were intact. This was done using the novel multiple injection-based experimental design (Fig. 1) at 25 μM, i.e. in a weak binder mode (Fig. 2b).
(§2) The library was screened using the approach described in Fig. 1, i.e. injection of fragments at 250 μM for increasing durations of time in a single cycle, using a flow rate of 100 μL min^−1, data acquisition set to 40 Hz and with an association time of 5 s and dissociation of 20 s. Each fragment was addressed to all four channels and interactions with the native and blocked surfaces compared. The experimental conditions were chosen to ensure that the assay could reliably characterize the fast and transient interactions expected from typical fragments.
(§3) The kinetic screening of 1056 compounds was successfully completed in 72 hours. […] Hits were identified with full kinetic information using dissociation phases.
(§4) All interaction kinetic experiments were conducted with a GCI–flow-based biosensor (WAVEdelta, Creoptix AG/Malvern Panalytical) and PCH WAVEchip (Creoptix AG/Malvern Panalytical) sensor chips. The sensor chips were conditioned using injections of borate buffer (10 mM sodium tetraborate pH 8.5, 1 M NaCl). The running buffer composition, if not otherwise stated, was TBS buffer (50 mM Tris, 150 mM NaCl, 0.5 mM TCEP, 0.05% Tween 20, 1% DMSO, pH 8). SMYD3 was diluted to the desired concentration in 10 mM bis-Tris (pH 7.0) and amine coupled to the sensor surface of the PCH sensor chip. The sensor chip was functionalized at 25 °C by immobilising SMYD3 with EDC and NHS (Xantec) using an injection time of 420 s and a flow rate of 10 μL min^−1. The immobilisation levels ranged from 5000 pg mm^−2 to 18 500 pg mm^−2 surface mass to enable analysis of fragments spanning a broad range of affinities. After immobilization, the surface was deactivated with a running buffer containing 50 mM Tris for 420 s. The GCI data referencing and analysis were performed using WAVEcontrol V4.5 (Creoptix AG).
(§5) Kinetic measurements with controls and fragments were performed at 15 °C. Analysis of controls and follow up of hits was done using the multi cycle kinetic (MCK) injection of a concentration series for the same time, with a two-fold serial dilution starting at 250 μM for each compound. Solvent correction was performed ranging from 0.5–1.8% DMSO. Blank samples of the running buffer, 1× TBS (50 mM Tris, 150 mM NaCl, 0.5 mM TCEP, 0.05% Tween 20, 1% DMSO, pH 8), were injected during the measurements every fifth cycle. The experimental design illustrated in Fig. 1 was used for the screening against all four surfaces. The sensorgrams were adjusted to account for solvent correction and blank subtraction. Kinetic fitting was performed with the Direct Kinetics engine of WAVEcontrol software V4.5 (Creoptix AG) with a suitable fitting model.

The target of test [1] is T2, SMYD3 in complex with active site-specific tight-binding inhibitor EPZ031686 (Homo sapiens, UniProt Q9H7B4).
T2 construct: Full length recombinant SMYD3 was produced as previously reported; made in house; host or cells: E. coli BL21(DE3), in some cases Rosetta 2
T2 sequence (Q9H7B4 1-428): T1 sequence (Q9H7B4 1-428)
Nature of the test: GCI biosensor kinetic screening, active site blocked SMYD3 surface.
Excerpt: as §1, §2, §3, §4, §5

Each structure is given as a SMILES string.

Turning to `Cn1cnc(S(N)(=O)=O)c1` [FL06268], the “LE (ligand efficiency)” value at SMYD3 (apo, native) (LE = −RT ln(KD)/n) is 0.63 (kcal^-1 mol^-1)/HA; in test [1] (LE = −RT ln(KD)/n, blocked SMYD3 surface), 0.63 (kcal^-1 mol^-1)/HA. For the same molecule, the Kd was 24.5 µM at SMYD3 (apo, native) (initial kinetic screening, fragment 250 μM, 15 °C) and 24 µM in test [1] (initial kinetic screening, fragment 250 μM, 15 °C, SMYD3 blocked by EPZ031686). Further, the kd at SMYD3 (apo, native) (initial kinetic screening, fragment 250 μM, 15 °C, 1:1 model) was determined as 0.52 s⁻¹; in test [1] (initial kinetic screening, fragment 250 μM, 15 °C, SMYD3 blocked by EPZ031686, 1:1 model), 0.83 s⁻¹. Further, the kon at 250 µM came to 21400 M⁻¹ s⁻¹ on SMYD3 (apo, native) (initial kinetic screening, fragment 250 μM, 15 °C, 1:1 model, read-out: ka) and 34100 M⁻¹ s⁻¹ in test [1] (initial kinetic screening, fragment 250 μM, 15 °C, SMYD3 blocked by EPZ031686, 1:1 model, read-out: ka).
